Reference: patent publication US6528510B1, “HIV protease inhibitors” (Warner-Lambert Company, priority 1998, dated 2003)
Where two headings read alike, the source gives them in different places.

What was measured:
[1] = biological target: T1, Recombinant HIV-1 protease (Human immunodeficiency virus type 1 group M subtype B, UniProt P04585); assay: HIV protease assay (Ki determination, HPLC readout of substrate III cleavage); format: biochemical
T1 construct: Recombinant HIV-1 protease (>96% purity); purchased Bachem Bioscience, Inc. (King of Prussia, Pa.)
Experimental: Recombinant HIV-1 protease (>96% purity) and HIV protease substrate III (the undecapeptide H-His-Lys-Ala-Arg-Val-Leu-Nph-Glu-Ala-Nle-Ser-NH2, 97% purity) were purchased from Bachem Bioscience, Inc. (King of Prussia, Pa.).
The methods employed follow the procedures of Tummino, et al., Archives of Biochemistry and Biophysics, 1995;316:523). […] (total volume, […]). […] The final inhibitor concentrations used were 0 (0.1, 0.2, in some experiments), 0.5, 1, 2, 5, 10, 20, 50, and 100 μM. The solution was mixed, incubated for 5 minutes and the reaction quenched by addition of trifluoracetic acid, 2% final. The (leu-p-nitro-phe) bond of the substrate is cleaved by the enzyme and substrate arid products separated by reverse-phase HPLC. Absorbance was measured at 220 nm, peak areas determined, and percentage conversion to product used to calculate percentage control (=[% conversion (+inhibitor)/% conversion (−inhibitor)]×100).

[2] = test system: HIV infected lymphocyte derived CEM cells; assay: Cellular infection assay in CEM cells, XTT cytopathic procedure (EC50); conditions: for TI (therapeutic index, TC50/EC50): CEM cells; for EC50: Human immunodeficiency virus 1, CCRF-CEM, read-out: Antiviral Efficacy EC50
Experimental: (§1) Compound concentrations were 0.32, 1, 3.2, 10, 32, and 100 uM.

[3] = Cellular toxicity in uninfected CEM cells, XTT (TC50); conditions: human, uninfected CEM cells (lymphocyte derived)
Experimental: as §1

[4] = Rat blood levels after IV dosing; format: in vivo; conditions: plasma, rats, IV dose of 10 mg/kg; for half-life: read-out: T 1/2 (half life) (converted)
Experimental: (§2) The procedure for pharmacokinetics analysis in dogs and rats was similar. For dog studies, two dogs received a single oral 10 mg/kg dose of the HIV protease inhibitor as a solution. The protease inhibitor was dissolve in 0.1N NaOH followed by buffering or diluting with isotonic phosphate buffer or water depending on solubility. For rat studies. two male rats received a single oral 10 mg/kg gavage dose of the HIV protease inhibitor suspended in 0.5% methylcellulose. For the IV administration, the compounds were dissolved in 0.1N sodium hydroxide at a concentration of 10 mg/ml. The IV dose was given bolus. Blood samples were collected prior to dosing and at 0.25, 0.5, 1, 1.5, 2, 3, 4, 8, 12, and 24 hours postdose. Plasma samples were analyzed for the HIV protease inhibitor using a HPLC procedure. The method involved plasma protein precipitation with acetonitrile, reverse-phase chromatographic separation of the HIV protease inhibitor and internal standard, and quantitation by UV detection. Some plasma samples were concentrated by evaporation prior to injection. Pharmacokinetic parameters were determined by noncompartmental analysis of individual rat-plasma concentration-time curves using WinNonlin. Maximum concentration (Cmax) and time for these to occur (tmax) were recorded as observed. Area under concentration-time curve (AUC) values were obtained using the linear trapezoidal rule.

[5] = Mouse blood levels after oral dosing; format: in vivo, Charles River CD-1 mice; conditions: CD-1, mouse, plasma, mice, oral dose of 25 mg/kg; for Cmax: read-out: Cmax (maximum concentration reached within the plasma); for half-life: read-out: T 1/2 (half life) (converted)
Experimental: Charles River CD-1 mice were dosed with a 25 mg/kg drug solution orally by gavage. For oral dosing the compounds were dissolved in 0.1N NaOH (20% final volume) and then 0.5% methylcellulose (80% final volume) was added. Blood was drawn and pooled from 5 mice at each time point via heart puncture and was placed in a 15 mL centrifuge tube containing heparin. The plasma stored in 200 μL aliquots at −80° C. until assayed.
Plasma was thawed at room temperature and then 400 μL of acetonitrile was added to each vial and vortexed. Following centrifugation the supernatant was removed and evaporated in a nitrogen evaporator at 48° C. Residue was then resolublized in 200 μL of a 75% water/25% CH3CN solution for HPLC analysis. HPLC analysis used a Zorbax RX-C8 column (4.6×150 mm) with a 25 mM potassium phosphate buffer with 0.1% TFA, pH 3.0. Mobile phases consisted of varying percentages of two buffer mixtures: Buffer A—90% buffer, 10% CH3CN, and Buffer B—30% buffer, 70% CH3CN.
A standard curve ranging from 0.5 to 50 μg/mL was used for each drug tested. Ten times final concentration solutions of drug in water were prepared from stock solutions of 1 mg/mL drug in DMSO. The final 1:10 dilution was then done in mouse plasma obtained from mice described above.

[6] = Rat blood levels after oral dosing; format: in vivo; conditions: male, plasma, rats, oral dose of 10 mg/kg; for Cmax: read-out: Cmax (maximum concentration reached within the plasma); for half-life: read-out: T 1/2 (half life) (converted)
Experimental: as §2

[7] = recombinant HIV-1 protease, read-out: Inhib of HIV Protease KI

| Compound | Ki [1] [nM] | TI (therapeutic index, TC50/EC50) [2] | EC50 [2] [nM] | CC50 [3] [µM] | C0 [4] [µM] | half-life [4] [min] | Ki [1, 7] [nM] | Cmax [5] [µM] | half-life [5] [min] | Cmax [6] [µM] | half-life [6] [min] |
| --- | --- | --- | --- | --- | --- | --- | --- | --- | --- | --- | --- |
| CC(C)C1(CCc2ccccc2CO)CC(O)=C(Sc2cc3cc[nH]c3cc2C(C)(C)C)C(=O)O1 (racemic) [Example 69, 4-Hydroxy-3-(6-tert-butyl-indol-5-ylsulfanyl)-6-[2-(2-hydroxymethyl-phenyl)-ethyl]6-isopropyl-5,6-dihydropyran-2-one] | 0.67 | 306 | 180 | 55 | 335 | 270 |  |  |  |  |  |
| Cc1cc(SC2=C(O)CC(CCc3ccoc3)(C(C)C)OC2=O)c(C(C)(C)C)cc1CO (stereo not shown) [Example 4, 3-(2-tert-Butyl-4-hydroxymethyl-5-methyl-phenylsulfanyl)-6-(2-furan-3-yl-ethyl)-4-hydroxy-6-isopropyl-5,6-dihydro-pyran-2-one] |  | 199 | 1000 | 199 |  |  | 0.35 | 54 | 336 |  |  |
| Cc1cc(SC2=C(O)CC(CCc3ccco3)(C(C)C)OC2=O)c(C(C)(C)C)cc1CO (stereo not shown) [Example 5, 3-(2-tert-Butyl-4-hydroxymethyl-5-methyl-phenylsulfanyl)-6-(2-furan-2-yl-ethyl)-4-hydroxy-6-isopropyl-5,6-dihydro-pyran-2-one] |  | 253 | 750 | 190 |  |  | 0.78 |  |  |  |  |
| Cc1cc(SC2=C(O)CC(CCc3ccsc3)(C(C)C)OC2=O)c(C(C)(C)C)cc1CO (stereo not shown) [Example 7, 3-(2-tert-Butyl-4-hydroxymethyl-5-methyl-phenylsulfanyl)-4-hydroxy-6-isopropyl-6-(2-thiophen-3-yl-ethyl)-5,6-dihydro-pyran-2-one] |  | 366 | 300 | 110 |  |  | 0.17 | 40 | 210 |  |  |
| Cc1cc(SC2=C(O)CC(CCc3cccs3)(C(C)C)OC2=O)c(C(C)(C)C)cc1CO (stereo not shown) [Example 8, 3-(2-tert-Butyl-4-hydroxymethyl-5-methyl-phenylsulfanyl)-4-hydroxy-6-isopropyl-6-(2-thiophen-2-yl-ethyl)-5,6-dihydro-pyran-2-one] |  | 161 | 500 | 80.5 |  |  | 0.35 |  |  |  |  |
| Cc1cc(SC2=C(O)CC(CCc3csc(CO)c3)(C(C)C)OC2=O)c(C(C)(C)C)cc1CO (stereo not shown) [Example 9] |  | 117 | 1800 | 210 |  |  | 0.19 |  |  |  |  |
| Cc1cc(SC2=C(O)CC(CCc3ccsc3CO)(C(C)C)OC2=O)c(C(C)(C)C)cc1N (stereo not shown) [Example 11, 3-(4-Amino-2-tert-butyl-5-methyl-phenylsulfanyl)-4-hydroxy-6-[2-(2-hydroxymethyl-thiophen-3-yl)-ethyl]-6-isopropyl-5,6-dihydro-pyran-2-one] |  | 458 | 290 | 133 |  |  | 0.23 |  |  |  |  |
| CC(C)[C@]1(CCc2ccccc2)CC(O)=C(Sc2cc3sc(N)nc3cc2C(C)(C)C)C(=O)O1 [Example 13, (S)-3-(2-Amino-5-tert-butyl-benzothiazol-6-ylsulfanyl)-4-hydroxy-6-isopropyl-6-phenethyl-5,6-dihydro-pyran-2-one] |  | 152 | 280 | 42 |  |  |  |  |  | 5.1 | 516 |
| CC(C)c1cc2nc(N)sc2cc1SC1=C(O)C[C@@](CCc2ccccc2)(C(C)C)OC1=O [Example 14, (S)-3-(2-Amino-5-isopropyl-benzothiazol-6-ylsulfanyl)-4-hydroxy-6-isopropyl-6-phenethyl-5,6-dihydro-pyran-2-one] |  | 30 | 2500 | 75 |  |  | 0.67 |  |  |  |  |
| CC(C)C1(CCc2ccccc2CO)CC(O)=C(Sc2sc3ccccc3c2C(C)(C)C)C(=O)O1 (stereo not shown) [Example 22, 3-(3-tert-Butyl-benzo[b]thiophen-2-yl-sulfanyl)-4-hydroxy-6-[2-(2-hydroxymethyl-phenyl)-ethyl]-6-isopropyl-5,6-dihydro-pyran-2-one] |  | 43 | 1500 | 66 |  |  | 0.85 |  |  |  |  |
| Cc1cc(SC2=C(O)CC(CCc3nccs3)(C(C)C)OC2=O)c(C(C)(C)C)cc1CO (stereo not shown) [Example 25, 3-(2-tert-Butyl-4-hydroxymethyl-5-methyl-phenylsulfanyl)-4-hydroxy-6-isopropyl-6-(2-thiazol-2-yl-ethyl)-5,6-dihydro-pyran-2-one] |  | 308 | 700 | 216 | 120 | 480 | 0.57 | 33 | 198 | 6 | 720 |
| Cc1csc(CCC2(C(C)C)CC(O)=C(Sc3cc(C)c(CO)cc3C(C)(C)C)C(=O)O2)n1 (stereo not shown) [Example 26, 3-(2-tert-Butyl-4-hydroxymethyl-5-methyl-phenylsulfanyl)-4-hydroxy-6-isopropyl-6-[2-(4-methyl-thiazol-2-yl)-ethyl]-5,6-dihydro-pyran-2-one] |  | 213 | 800 | 171 |  |  | 0.45 |  |  |  |  |
| CC(C)c1cc2ncsc2cc1SC1=C(O)C[C@@](CCc2ccc(O)cc2)(C(C)C)OC1=O [Example 48, (S)-4-Hydroxy-6-[2-(4-hydroxy-phenyl)-ethyl]-6-isopropyl-3-(5-isopropyl-benzothiazol-6-ylsulfanyl)-5,6-dihydro-pyran-2-one] | 0.4 | 78 | 370 | 29 |  |  |  |  |  |  |  |
| CC(C)[C@]1(CCc2ccccc2)CC(O)=C(Sc2cc3cc[nH]c3cc2C(C)(C)C)C(=O)O1 [Example 73, (S)-3-(6-tert-Butyl-1H-indol-5-yl-sulfanyl)-4-hydroxy-6-isopropyl-6-(2-phenethyl)-5,6-dihydro-pyran-2-one] | 0.54 | 69 | 610 | 42 |  |  |  |  |  |  |  |
| CC(C)[C@]1(CCc2ccccc2)CC(O)=C(Sc2cc3sc(NS(C)(=O)=O)nc3cc2C(C)(C)C)C(=O)O1 [Example 79, (S)-N-[5-tert-Butyl-6-(4-hydroxy-6-isopropyl-2-oxo-6-phenethyl-5,6-dihydro-2H-pyran-3-ylsulfanyl)-benzothiazol-2-yl]-methanesulfonamide] | 2.1 | 56 | 2200 | 125 |  |  |  |  |  |  |  |
| CC(C)[C@]1(CCc2cccc(F)c2)CC(O)=C(Sc2cc3sc(N)nc3cc2C(C)(C)C)C(=O)O1 [Example 83, (S)-3-(2-Amino-5-tert-butyl-benzothiazol-6-ylsulfanyl)-6-[2-(3-fluoro-phenyl)-ethyl]-4-hydroxy-6-isopropyl-5,6-dihydro-pyran-2-one] | 0.44 | 235 | 260 | 61 | 199 | 240 |  |  |  |  |  |
